{"source": "patent EP4640240A1", "about": "“PEPTIDE-BASED RADIOPHARMACEUTICALS FOR NON-INVASIVE IMAGING OF THE FUNCTIONAL LIVER RESERVE” (Medizinische Universität Innsbruck, priority 2024, dated 2025)", "key": {"[1]": {"assay": "Partition coefficient logD (n-octanol/PBS)", "assay_type": "physicochemical", "conditions": "n=6", "protocol": "For determination of logarithmic partition coefficients (logD) n-Octanol (500 µL) and PBS (500 µL) were pipetted into eight 1.5 mL Protein Low-Bind Eppendorf tubes followed by addition of 300 kBq of labelled compound. The vials were vortexed for 5 min at 1,500 1/min and then centrifuged for 5 min at 20,000 rcf (Eppendorf Centrifuge 5424). Aliquots of 100 µL were taken out of each phase and the amount of activity was quantified in a γ-counter (Perkin Elmer 2480 Wizard2 3\"; Waltham, Massachusetts, USA)."}, "[2]": {"assay": "Stability in human blood serum (radio-HPLC)", "assay_type": "in vitro ADME", "conditions": "37 °C", "protocol": "Ligand stability in human blood serum (n = 2) and PBS (pH = 6.5) (n = 1) was determined for different time points (2 min, 30 min, 60 min, 120 min). Therefore, approx. 5 MBq of radioligand was added to 1 mL of fresh human serum at 37 °C or PBS at rt. At each given time point 100 µL of the mixture were transferred to a 1.5 mL Eppendorf tube containing 100 µL of acetonitrile. The vial was vortexed and centrifuged for 2 min at 14,000 1/min before 100 µL of the supernatant were diluted with 200 µL of water and injected into analytical radio-HPLC. The PBS solution was directly injected into the radio-HPLC. Ligand stability was determined by integrating the areas of the signals in the radio chromatogram in relation to the signal of the intact ligand."}, "[3]": {"assay": "Biodistribution studies in BALB/c mice", "assay_type": "in vivo", "conditions": "female, mouse, iv, total radioactivity, healthy BALB/c mice, 0.1 nmol i.v.; for tissue uptake at 10 min: 10 min p.i.; for tissue uptake at 0.5 h: 30 min p.i.; for tissue uptake at 1 h: 60 min p.i.", "protocol": "For biodistribution studies 6-week-old female BALB/c mice (n=3) were injected with 0.1 nmol (100 µL, approx. 1 MBq) of labelled compound via the lateral tail vein and sacrificed after 10, 30, or 60 min by cervical dislocation. The mice were dissected, blood and organs (spleen, pancreas, stomach, intestine, liver, kidney, heart, lung, muscle and bone) were weighed and their activity measured in a γ-counter. For blocking experiments, mice were co-injected with 27.7 µmοl N-acetylgalactose."}, "[4]": {"assay": "Protein binding in human serum (MicroSpin G-50 columns)", "assay_type": "in vitro ADME", "conditions": "fresh human serum, 37 °C, n=3", "protocol": "Protein binding was determined for different time points (2 min, 30 min, 60 min, 120 min) in triplicates using Sephadex MicroSpin G-50 columns (GE-Healthcare, Chicago, Illinois, USA). The columns were spun initially at 20,000 rcf for 1 min to remove the storage buffer. Then approx. 5 MBq of radioligand was added to 1 mL of fresh human serum and incubated at 37 °C. At each given timepoint 25 µL of the mixture was loaded on to the column, which was then spun at 20,000 rcf for 1 min. The activity content on the column (free radioligand) and in the filtrate (protein bound fraction) was quantified in a γ-counter."}, "[5]": {"conditions": "Blood, read-out: Biodistribution data, Blood"}, "[6]": {"conditions": "Femur, read-out: Biodistribution data, Femur"}, "[7]": {"conditions": "Heart, read-out: Biodistribution data, Heart"}, "[8]": {"conditions": "Intestine, read-out: Biodistribution data, Intestine"}, "[9]": {"conditions": "Kidneys, read-out: Biodistribution data, Kidneys"}, "[10]": {"conditions": "Liver, read-out: Biodistribution data, Liver"}, "[11]": {"conditions": "Lung, read-out: Biodistribution data, Lung"}, "[12]": {"conditions": "Muscle, read-out: Biodistribution data, Muscle"}, "[13]": {"conditions": "Pancreas, read-out: Biodistribution data, Pancreas"}, "[14]": {"conditions": "Spleen, read-out: Biodistribution data, Spleen"}, "[15]": {"conditions": "Stomach, read-out: Biodistribution data, Stomach"}}, "note": "Read-outs that look alike come from different tables or passages of the source."}
{"smiles": "NC(=O)CNC(=O)CNC(=O)[C@H](CCCCNC(=O)CCCCc1cn(C2O[C@H](CO)[C@H](O)[C@H](O)[C@H]2O)nn1)NC(=O)CNC(=O)CNC(=O)[C@H](CCCCNC(=O)CCCCc1cn(C2O[C@H](CO)[C@H](O)[C@H](O)[C@H]2O)nn1)NC(=O)CNC(=O)CNC(=O)[C@H](CCCCNC(=O)CCCCc1cn(C2O[C@H](CO)[C@H](O)[C@H](O)[C@H]2O)nn1)NC(=O)CNC(=O)CNC(=O)[C@H](CCCCNC(=O)CCCCc1cn(C2O[C@H](CO)[C@H](O)[C@H](O)[C@H]2O)nn1)NC(=O)CNC(=O)CNC(=O)[C@H](CCCCNC(=O)CCCCc1cn(C2O[C@H](CO)[C@H](O)[C@H](O)[C@H]2O)nn1)NC(=O)CNC(=O)CNC(=O)[C@H](CCCCNC(=O)CCCCc1cn(C2O[C@H](CO)[C@H](O)[C@H](O)[C@H]2O)nn1)NC(=O)CCCNC(=O)CC[C@H](C(=O)O)N1CCN(CC(=O)O)CCN(CC(=O)O)CC1", "note": "(stereo partly drawn) [[68Ga]Ga-HexaLysan, metal not drawn]", "values": [{"measurement": "logD", "setting": "[1]", "value": "-4.34 ± 0.13"}, {"measurement": "remaining at 2 min", "setting": "[2]; 2 min, n=2, read-out: Serum stability (% of intact ligand)", "value": "99.4 ± 0.2", "unit": "%"}, {"measurement": "Serum stability (% of intact ligand)", "setting": "[2]; 30 min, n=2", "value": "99.7 ± 0.1", "unit": "%"}, {"measurement": "remaining at 1 h", "setting": "[2]; 60 min, n=2, read-out: Serum stability (% of intact ligand)", "value": "99.9 ± 0.1", "unit": "%"}, {"measurement": "remaining at 2 h", "setting": "[2]; 120 min, n=2, read-out: Serum stability (% of intact ligand)", "value": "99.9 ± 0.1", "unit": "%"}, {"measurement": "tissue uptake at 10 min", "setting": "[3]; [5]", "value": "2.1 ± 0.04", "unit": "%ID/g"}, {"measurement": "tissue uptake at 0.5 h", "setting": "[3]; [5]", "value": "0.63 ± 0.07", "unit": "%ID/g"}, {"measurement": "tissue uptake at 1 h", "setting": "[3]; [5]", "value": "1.05 ± 0.41", "unit": "%ID/g"}, {"measurement": "tissue uptake at 10 min", "setting": "[3]; [6]", "value": "0.48 ± 0.06", "unit": "%ID/g"}, {"measurement": "tissue uptake at 0.5 h", "setting": "[3]; [6]", "value": "0.33 ± 0.03", "unit": "%ID/g"}, {"measurement": "tissue uptake at 1 h", "setting": "[3]; [6]", "value": "0.002 ± 0.001", "unit": "%ID/g"}, {"measurement": "tissue uptake at 10 min", "setting": "[3]; [7]", "value": "0.94 ± 0.05", "unit": "%ID/g"}, {"measurement": "tissue uptake at 0.5 h", "setting": "[3]; [7]", "value": "0.37 ± 0.09", "unit": "%ID/g"}, {"measurement": "tissue uptake at 1 h", "setting": "[3]; [7]", "value": "0.25 ± 0.02", "unit": "%ID/g"}, {"measurement": "tissue uptake at 10 min", "setting": "[3]; [8]", "value": "1.19 ± 0.25", "unit": "%ID/g"}, {"measurement": "tissue uptake at 0.5 h", "setting": "[3]; [8]", "value": "3.97 ± 0.28", "unit": "%ID/g"}, {"measurement": "tissue uptake at 1 h", "setting": "[3]; [8]", "value": "5.94 ± 1.67", "unit": "%ID/g"}, {"measurement": "tissue uptake at 10 min", "setting": "[3]; [9]", "value": "4.83 ± 0.3", "unit": "%ID/g"}, {"measurement": "tissue uptake at 0.5 h", "setting": "[3]; [9]", "value": "1.94 ± 0.22", "unit": "%ID/g"}, {"measurement": "tissue uptake at 1 h", "setting": "[3]; [9]", "value": "1.34 ± 0.34", "unit": "%ID/g"}, {"measurement": "tissue uptake at 10 min", "setting": "[3]; [10]", "value": "54.8 ± 3.02", "unit": "%ID/g"}, {"measurement": "tissue uptake at 0.5 h", "setting": "[3]; [10]", "value": "55.5 ± 7.37", "unit": "%ID/g"}, {"measurement": "tissue uptake at 1 h", "setting": "[3]; [10]", "value": "45.9 ± 11.8", "unit": "%ID/g"}, {"measurement": "tissue uptake at 10 min", "setting": "[3]; [11]", "value": "1.61 ± 0.16", "unit": "%ID/g"}, {"measurement": "tissue uptake at 0.5 h", "setting": "[3]; [11]", "value": "0.77 ± 0.11", "unit": "%ID/g"}, {"measurement": "tissue uptake at 1 h", "setting": "[3]; [11]", "value": "0.62 ± 0.19", "unit": "%ID/g"}, {"measurement": "tissue uptake at 10 min", "setting": "[3]; [12]", "value": "0.93 ± 0.12", "unit": "%ID/g"}, {"measurement": "tissue uptake at 0.5 h", "setting": "[3]; [12]", "value": "0.57 ± 0.03", "unit": "%ID/g"}, {"measurement": "tissue uptake at 1 h", "setting": "[3]; [12]", "value": "0.41 ± 0.04", "unit": "%ID/g"}, {"measurement": "tissue uptake at 10 min", "setting": "[3]; [13]", "value": "0.91 ± 0.05", "unit": "%ID/g"}, {"measurement": "tissue uptake at 0.5 h", "setting": "[3]; [13]", "value": "0.69 ± 0.12", "unit": "%ID/g"}, {"measurement": "tissue uptake at 1 h", "setting": "[3]; [13]", "value": "0.48 ± 0.13", "unit": "%ID/g"}, {"measurement": "tissue uptake at 10 min", "setting": "[3]; [14]", "value": "0.5 ± 0.07", "unit": "%ID/g"}, {"measurement": "tissue uptake at 0.5 h", "setting": "[3]; [14]", "value": "0.21 ± 0.06", "unit": "%ID/g"}, {"measurement": "tissue uptake at 1 h", "setting": "[3]; [14]", "value": "0.17 ± 0.02", "unit": "%ID/g"}, {"measurement": "tissue uptake at 10 min", "setting": "[3]; [15]", "value": "1.29 ± 0.28", "unit": "%ID/g"}, {"measurement": "tissue uptake at 0.5 h", "setting": "[3]; [15]", "value": "1.19 ± 0.28", "unit": "%ID/g"}, {"measurement": "tissue uptake at 1 h", "setting": "[3]; [15]", "value": "0.4 ± 0.14", "unit": "%ID/g"}, {"measurement": "fraction unbound", "setting": "[4]; 2 min", "value": 0.824}, {"measurement": "fraction unbound", "setting": "[4]; 30 min", "value": 0.782}, {"measurement": "fraction unbound", "setting": "[4]; 60 min", "value": 0.82}, {"measurement": "fraction unbound at 120 min, 5 MBq/mL", "setting": "[4]; 120 min", "value": 0.748}]}
